For assay [1], the system named is HCV replicon I389luc-ubi-neo/NS3-3′/ET in ET (Huh-lucubineo-ET) cells. The assay can be described thus: Replicon assay (Biological Example 2), luciferase readout. In kind it is cell-based. Particulars: Hepatitis C virus. An outline of the steps:
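EC50 values come from Hill fits of % inhibition of replicon-driven firefly luciferase, relative to no-compound wells. Compounds were serially diluted (10 points, 3-fold, 0.1 nM–50 μM final, 0.5% DMSO) onto ET replicon cells and read after 48 h.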
Background: In antiviral work, replicon cells carry a viral genome segment that copies itself.

The target in assay [2] is T1, HCV polymerase (Hepatitis C virus genotype 1b, UniProt Q9WMX2).
T1 construct: (His)6 (C); made in house; host or cells: XL-1 cells (E. coli, by own knowledge)
As to the kind of experiment: Polymerase assay of Biological Example 1 (IC50 values of Table 3). Particulars: IC50 values of Table 3, polymerase assay of Biological Example 1; read-out: NS5B-enzyme3. In kind it is biochemical.

The mark [3] stands for this setting: ET cells, luciferase activity 48 hours after compound.

For the compound `O=C(O)c1sc(-c2ccccc2)cc1N1C(=O)CN(C(=O)c2ccccc2)C[C@H]1C1CCCCC1` [Compound 16, 3-((R)-4-Benzoyl-2-cyclohexyl-6-oxo-piperazin-1-yl)-5-phenyl-thiophene-2-carboxylic acid], the IC50 in assay [1] (setting [3]) is no less than 5000 nM; in assay [2] it was 420 nM.
With `Cc1ccccc1S(=O)(=O)N1CC(=O)N(c2cc(-c3ccccc3)sc2C(=O)O)C(C2CCCCC2)C1` (centres unmarked) [Compound 58, 3-[2-Cyclohexyl-6-oxo-4-(toluene-2-sulfonyl)-piperazin-1-yl]-5-phenyl-thiophene-2-carboxylic acid], the IC50 was 100 to 5000 nM in assay [1] (between 100 nM and 5.0 uM); 88 nM in assay [2].
The matching figures for `O=C(O)c1sc(-c2ccc(Cl)cc2)cc1N1C(=O)COC[C@H]1C1CCCCC1` [Compound 293, 5-(4-Chloro-phenyl)-3-((R)-3-cyclohexyl-5-oxo-morpholin-4-yl)-thiophene-2-carboxylic acid]: 100 to 5000 nM and 5 nM.
The matching figures for `O=C(O)c1sc(-c2ccccc2)cc1N1C(=O)CN(S(=O)(=O)c2ccc(Oc3ccccc3)cc2)CC1C1CCCCC1` (centres unmarked) [Compound 51, 3-[2-Cyclohexyl-6-oxo-4-(4-phenoxy-benzenesulfonyl)-piperazin-1-yl]-5-phenyl-thiophene-2-carboxylic acid]: 100 to 5000 nM and 11 nM.
With `CC1(C)CCN(c2ccc(S(=O)(=O)N3CC(=O)N(c4cc(-c5ccc(Cl)cc5)sc4C(=O)O)[C@H](C4CCCCC4)C3)cn2)C1` [Compound 292, 5-(4-Chloro-phenyl)-3-{(R)-2-cyclohexyl-4-[6-(3,3-dimethyl-pyrrolidin-1-yl)-pyridine-3-sulfonyl]-6-oxo-piperazin-1-yl}-thiophene-2-carboxylic acid], the IC50 in assay [1] (setting [3]) was no more than 100 nM; in assay [2], 2.3 nM.
The matching figures for `CC(C)(C)C#Cc1cc(N2C(=O)CCC[C@H]2C2CCCCC2)c(C(=O)O)s1` [Compound 35, 3-((S)-2-Cyclohexyl-6-oxo-piperidin-1-yl)-5-(3,3-dimethyl-but-1-ynyl)-thiophene-2-carboxylic acid]: no more than 100 nM and 9.5 nM.
For the compound `O=C(O)c1sc(-c2ccccc2)cc1N1C(=O)CN(S(=O)(=O)C2CCCCC2)CC1C1CCCCC1` (centres unmarked) [Compound 46, 3-(4-Cyclohexanesulfonyl-2-cyclohexyl-6-oxo-piperazin-1-yl)-5-phenyl-thiophene-2-carboxylic acid], the IC50 in assay [1] (between 100 nM and 5.0 uM) is 100 to 5000 nM; in assay [2] it was 63 nM.
On the same counts, the results for `Cn1ccc2cc(S(=O)(=O)N3CC(=O)N(c4cc(-c5ccccc5)sc4C(=O)O)C(C4CCCCC4)C3)ccc21` (centres unmarked) [Compound 61, 3-[2-Cyclohexyl-4-(1-methyl-1H-indole-5-sulfonyl)-6-oxo-piperazin-1-yl]-5-phenyl-thiophene-2-carboxylic acid] are 100 to 5000 nM and 3 nM.
Turning to `CC(C)(C)C#Cc1cc(N2C(=O)CCC[C@@H]2C2CCCCC2)c(C(=O)O)s1` [Compound 34, 3-((R)-2-Cyclohexyl-6-oxo-piperidin-1-yl)-5-(3,3-dimethyl-but-1-ynyl)-thiophene-2-carboxylic acid], the IC50 in assay [1] (setting [3]) was no less than 5000 nM; in assay [2], 1050 nM.
In the case of `O=C(O)c1sc(-c2ccc(Cl)cc2)cc1N1C(=O)CN(S(=O)(=O)c2ccc(N3CCOCC3)nc2)C[C@H]1C1CCCCC1` [Compound 199, 5-(4-Chloro-phenyl)-3-[(R)-2-cyclohexyl-4-(6-morpholin-4-yl-pyridine-3-sulfonyl)-6-oxo-piperazin-1-yl]-thiophene-2-carboxylic acid], the IC50 in assay [1] (setting [3]) is no more than 100 nM; in assay [2] it was 2 nM.
For the compound `O=C(O)c1sc(-c2ccccc2)cc1N1C(=O)CN(S(=O)(=O)c2ccc(N3CC[C@H](O)C3)nc2)CC1C1CCCCC1` (stereo partly drawn) [Compound 124, 3-{2-Cyclohexyl-4-[6-((S)-3-hydroxy-pyrrolidin-1-yl)-pyridine-3-sulfonyl]-6-oxo-piperazin-1-yl}-5-phenyl-thiophene-2-carboxylic acid], the IC50 in assay [1] (between 100 nM and 5.0 uM) was 100 to 5000 nM; in assay [2], 4 nM.
Turning to `Cc1ccc(-c2cc(N3C(=O)CN(S(=O)(=O)c4cn(C)c(C)n4)C[C@H]3C3CCCCC3)c(C(=O)O)s2)cc1` [Compound 298, 3-[(R)-2-Cyclohexyl-4-(1,2-dimethyl-1H-imidazole-4-sulfonyl)-6-oxo-piperazin-1-yl]-5-p-tolyl-thiophene-2-carboxylic acid], the IC50 was no more than 100 nM in assay [1] (setting [3]) and 1 nM in assay [2].
The matching figures for `Cc1ccc(S(=O)(=O)N2CC(=O)N(c3cc(C#CC(C)(C)C)sc3C(=O)O)C(C3CCCCC3)C2)cc1` (centres unmarked) [Compound 166, 3-[2-Cyclohexyl-6-oxo-4-(toluene-4-sulfonyl)-piperazin-1-yl]-5-(3,3-dimethyl-but-1-ynyl)-thiophene-2-carboxylic acid]: no less than 5000 nM and 982 nM.
On the same counts, the results for `O=C(O)c1sc(-c2ccc(F)cc2)cc1N1C(=O)CN(S(=O)(=O)c2ccc(N3CC4CCC(C3)O4)nc2)C[C@H]1C1CCCCC1` [Compound 196, 3-{(R)-2-Cyclohexyl-4-[6-(8-oxa-3-aza-bicyclo[3.2.1]oct-3-yl)-pyridine-3-sulfonyl]-6-oxo-piperazin-1-yl}-5-(4-fluoro-phenyl)-thiophene-2-carboxylic acid] are no more than 100 nM and 1 nM.
The matching figures for `CC(C)(C)C#Cc1cc(N2C(=O)CN(S(=O)(=O)c3ccc(C#N)cc3)C[C@H]2C2CCCCC2)c(C(=O)O)s1` [Compound 238, 3-[(R)-4-(4-Cyano-benzenesulfonyl)-2-cyclohexyl-6-oxo-piperazin-1-yl]-5-(3,3-dimethyl-but-1-ynyl)-thiophene-2-carboxylic acid]: no more than 100 nM and 2 nM.
Turning to `Cc1ccc(-c2cc(N3C(=O)CN(S(=O)(=O)c4cnn(CC(C)C)c4)C[C@H]3C3CCCCC3)c(C(=O)O)s2)cc1` [Compound 301, 3-[(R)-2-Cyclohexyl-4-(1-isobutyl-1H-pyrazole-4-sulfonyl)-6-oxo-piperazin-1-yl]-5-p-tolyl-thiophene-2-carboxylic acid], the IC50 in assay [1] (setting [3]) is no more than 100 nM; in assay [2] it was 4 nM.
Turning to `O=C(O)c1sc(-c2ccccc2)cc1N1C(=O)CN(S(=O)(=O)c2ccc(N3CCC3)nc2)CC1C1CCCCC1` (centres unmarked) [Compound 74, 3-[4-(6-Azetidin-1-yl-pyridine-3-sulfonyl)-2-cyclohexyl-6-oxo-piperazin-1-yl]-5-phenyl-thiophene-2-carboxylic acid], the IC50 in assay [1] (setting [3]) was no more than 100 nM; in assay [2], 12 nM.
The matching figures for `CC(C)(C)C#Cc1cc(N2C(=O)CN(S(=O)(=O)c3cn[nH]c3)C[C@H]2C2CCCCC2)c(C(=O)O)s1` [Compound 241, 3-[(R)-2-Cyclohexyl-6-oxo-4-(1H-pyrazole-4-sulfonyl)-piperazin-1-yl]-5-(3,3-dimethyl-but-1-ynyl)-thiophene-2-carboxylic acid]: no more than 100 nM and 1 nM.
The matching figures for `CC(C)(C)C#Cc1cc(N2C(=O)[C@@H](CCO)OC[C@H]2C2CCCCC2)c(C(=O)O)s1` [Compound 8, 3-[(2R,5R)-5-Cyclohexyl-2-(2-hydroxy-ethyl)-3-oxo-morpholin-4-yl]-5-(3,3-dimethyl-but-1-ynyl)-thiophene-2-carboxylic acid]: no more than 100 nM and 1 nM.

The record behind these values is US9498483B2, “2,3,5-trisubstituted thiophene compounds and uses thereof” (priority 2010, dated 2016).
